This test concerns the target T1, glycogen synthase kinase 3β (GSK-3β) (Homo sapiens, UniProt P49841).
T1 construct: gene GSK3B; recombinant His-tagged GSK-3β
Nature of the test: BLI on immobilized GSK-3β; also DARTS in lysate and Kinase-Glo inhibition (IC50 […]). Format: binding. (In general: Kinase-Glo reads ATP consumption through a luciferase reaction.)

T1 sequence (P49841 whole entry): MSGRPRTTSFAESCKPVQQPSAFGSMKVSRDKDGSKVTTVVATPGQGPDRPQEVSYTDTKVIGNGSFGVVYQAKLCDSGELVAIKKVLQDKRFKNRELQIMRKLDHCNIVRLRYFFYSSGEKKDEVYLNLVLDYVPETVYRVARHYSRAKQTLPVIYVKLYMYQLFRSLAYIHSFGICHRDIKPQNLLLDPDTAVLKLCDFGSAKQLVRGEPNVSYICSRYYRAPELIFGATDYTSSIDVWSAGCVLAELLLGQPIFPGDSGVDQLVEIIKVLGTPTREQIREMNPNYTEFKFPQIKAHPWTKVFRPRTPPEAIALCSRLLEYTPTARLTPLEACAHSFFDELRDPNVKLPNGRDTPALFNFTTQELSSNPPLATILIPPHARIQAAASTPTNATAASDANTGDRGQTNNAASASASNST

In general, Kd refers to the constant that tells how readily two partners part at equilibrium. High values mean a looser complex, low ones a tighter complex. On to `Cc1c(O)c(C)c2c(c1O)C(=O)C[C@@H](c1ccc(O)cc1)O2` [farrerol], for which the affinity, expressed as Kd, was 634 µM.

The values are drawn from paper PMC7007950, “Farrerol Directly Targets GSK-3β to Activate Nrf2-ARE Pathway and Protect EA.hy926 Cells against Oxidative Stress-Induced Injuries” (Oxidative Medicine and Cellular Longevity, 2020).
